For eight compounds, melting point and IC50 results are on record in US6869956B2, “Methods of treating inflammatory and immune diseases using inhibitors of IκB kinase (IKK)” (Bristol-Myers Squibb Company, priority 2000, dated 2005).

Series [1] has as its target T1, recombinantly expressed IKK-1 (Homo sapiens, UniProt O15111).
T1 construct: made in house
T1 sequence (O15111 1-745): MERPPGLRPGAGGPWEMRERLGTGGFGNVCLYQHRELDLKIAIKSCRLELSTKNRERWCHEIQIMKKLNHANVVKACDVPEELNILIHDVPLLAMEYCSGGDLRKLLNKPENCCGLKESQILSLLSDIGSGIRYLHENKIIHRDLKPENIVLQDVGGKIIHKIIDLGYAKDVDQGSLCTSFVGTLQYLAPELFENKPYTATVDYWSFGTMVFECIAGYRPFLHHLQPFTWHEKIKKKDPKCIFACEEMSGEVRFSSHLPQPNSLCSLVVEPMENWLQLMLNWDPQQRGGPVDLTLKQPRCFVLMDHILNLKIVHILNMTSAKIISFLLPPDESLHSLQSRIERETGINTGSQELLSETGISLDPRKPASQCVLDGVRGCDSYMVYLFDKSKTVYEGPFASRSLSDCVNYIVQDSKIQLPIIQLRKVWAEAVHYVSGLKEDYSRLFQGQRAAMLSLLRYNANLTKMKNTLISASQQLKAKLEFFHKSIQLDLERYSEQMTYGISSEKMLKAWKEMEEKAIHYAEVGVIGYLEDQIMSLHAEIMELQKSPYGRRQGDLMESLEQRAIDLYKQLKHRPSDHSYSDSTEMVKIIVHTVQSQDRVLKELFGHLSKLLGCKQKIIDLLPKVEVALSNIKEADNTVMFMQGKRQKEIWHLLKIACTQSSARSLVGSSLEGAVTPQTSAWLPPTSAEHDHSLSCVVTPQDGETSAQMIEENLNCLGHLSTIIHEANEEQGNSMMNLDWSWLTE
As to the kind of experiment: IKK-1 enzyme assay (33P-ATP / IκB-α phosphorylation). To be noted: 33P-labeled ATP and IκB-α as substrates. Format: biochemical. The method, then:
In this assay, test compound was added to a solution of 0.5 mM IκB-α in 40 mM Tris-HCl, pH 8, containing 4 mM MgCl2, 1 mM dithiothreitol, and 2 mM ^33P-labeled ATP. IKK enzyme (either the multisubunit complex from HeLa cells, recombinantly expressed IKK-1, or recombinantly expressed IKK-2) was then added to initiate the reaction. The multisubunit complex was isolated according to the procedure of Lee et al. [(1997) Cell 88:213-222] or Mercurio et al. [(1997) 278:860-866]. The recombinant IKK-1 and IKK-2 were expressed using the procedure of Burke et al. [(1999) J. Biol. Chem. 274:36146-36152]. After incubating for 10 minutes at 30° C., the reaction was quenched by the addition of EDTA to a final concentration of 30 mM. In order to separate the phosphorylated IκB-α (Santa Cruz Biotechnology; Santa Cruz, Calif.) product from unreacted ATP, sodium dodecylsulfate polyacrylamide gel electrophoresis (SDS-PAGE) was performed. Phosphoimager analysis of the amount of ^33P incorporation into IκB-α was executed using a Molecular Dynamics 445 Phosphoimager, and the inhibition of IKK activity by the test compound was calculated from control samples containing no inhibitor.

Where a name gives a salt, the structure may show the parent alone.

For the compound `CNCCNc1nc2cc3ccccc3cc2n2c(C)cnc12` (as salt: hydrochloride) [Example 13, 1-methyl-4-(2-N-methylaminoethylamino)benzo[g]imidazo[1,2-a]quinoxaline Hydrochloride], the melting point is 265 to 275 °C (dec.).

For the compound `CNc1nc2cc3ccccc3cc2n2c(C)cnc12` [Example 12, 1-methyl-4-methylaminobenzo[g]imidazo[1,2-a]quinoxaline], the melting point lay within 201 to 202 °C. Besides, in series [1], the IC50 was 230 nM. For `CNCCNc1nc2cc3ccccc3cc2n2c(C)cnc12` [Example 13, 1-methyl-4-(2-N-methylaminoethylamino)benzo[g]imidazo[1,2-a]quinoxaline Hydrochloride], in series [1], the IC50 came out at 350 nM. On the same count and under the same terms, as for `CNc1nc2cc3ccccc3cc2c2c(C)cnn12` [Example 14, 1-methyl-4-methylaminobenzo[g]pyrazolo[1,5-c]quinazoline], the figure is 670 nM. Still for that read-out and setting: as for `CNc1nc2cc3ccccc3cc2c2c1ncn2C` [Example 16, 1-methyl-4-methylaminobenzo(g)imidazo(4,5-c)quinoline], the figure is 800 nM. On the same count and under the same terms, next, `Cn1cnc2c(NCCN)nc3cc4ccccc4cc3c21` [Example 17]: 1000 nM. In turn, `Cc1cnc2c(NCCO)nc3cc4ccccc4cc3n12` [Example 18, 1-methyl-4-(2-hydroxyethylamino)benzo[g]imidazo[1,2-a]quinoxaline] gave a melting point of 186 to 188 °C. `Cc1cnc2c(NCCN3CCCCC3)nc3cc4ccccc4cc3n12` [Example 19, 1-methyl-4-(2-piperidin-1-yl-ethylamino)benzo[g]imidazo[1,2-a]quinoxaline] came in with a melting point of 170 to 172 °C. For the same compound, the IC50 in series [1] was determined as 1700 nM.

By melting point is commonly meant the temperature, or range, at which the solid turns liquid. The term IC50 denotes the concentration that gives 50% inhibition.
